Laboratory results from article PMC8037406, “Symbiotic NCR Peptide Fragments Affect the Viability, Morphology and Biofilm Formation of Candida Species” (International Journal of Molecular Sciences, 2021).
Read-outs that look alike come from different tables or passages of the source. Where a SMILES comes first, the peptide text is derived from it. Bridges are numbered along the chain shown (N, C = ends).

Columns and labels:
Candida albicans = details: cited from earlier work
Description: In addition to bacteria, NCRs can also kill fungi. […] However, we noticed that, unlike the full sequence of NCR169, its C-terminal half was highly cationic (pI: 10.1) leading us to assume that this part may have antimicrobial activity.

[1] = system: C. tropicalis CBS 94 biofilm; assay: Morphology of biofilm-located cells, scanning electron microscopy; assay type: cell-based, Candida tropicalis; details: SEM, 72 h, 37 °C, 1.56 µM peptide
[2] = system: C. albicans SC 5314 biofilm; assay: Biofilm formation assay, XTT; assay type: cell-based, Candida albicans; details: 72 h, 37 °C, 5 % CO2, 1/8AIM medium, p ≤ 0.0001
[3] = system: C. albicans ATCC 10231 biofilm; assay: Biofilm formation assay, XTT; assay type: cell-based, Candida albicans; details: 72 h, 37 °C, 5 % CO2, 1/8AIM medium, p ≤ 0.0001
C. auris = details: for reduction of MIC in the synergistic combination: compared with single use
Description: Amphotericin B, due to its high toxicity was not included in this assay.
The effects of the different combinations of fluconazole and NCR335C17–33, NCR169C17–38 or NCR169C17–38ox were determined by standard checkerboard titration method. The fluconazole was tested in a concentration range from 6.25 to 75 µM, NCR169C17–38 and NCR169C17–38ox from 0.78 to 12.50 µM, NCR335C17–33 from 1.56 to 25 µM. The initial cell concentration in each well was 4 × 10^4 cell/mL. After the incubation for 72 h at 30 °C, the optical density of the cultures was detected at 620 nm in SPECTROstar Nano plate reader (BMG LabTech, Offenburg, Germany). The inhibitory concentrations were determined for each compound alone and in combinations. The experiments were carried out at least three times. The effect of combinations was evaluated by fractional inhibitory concentration (FIC) index. FIC = FICA + FICB. FICA = (MICA in combination)/(MICA alone); FICB = (MICB in combination)/(MICB alone)

[4] = system: C. tropicalis CBS 94 biofilm; assay: Biofilm formation assay, XTT; assay type: cell-based, Candida tropicalis; details: 72 h, 37 °C, 5 % CO2, 1/8AIM medium, p ≤ 0.0001
C. albicans ATCC 10231 = assay: Yeast-hypha morphology, bright-field microscopy; assay type: cell-based, Candida albicans; details: 3.12 µM peptide, 48 h, 1/8AIM medium, sub-lethal concentration
Description: (§1) As hyphae formation is an important virulence factor, we investigated how the broad range activity peptides, NCR335C17–33, NCR169C17–38 and NCR169C17–38ox affect the morphological switch of C. albicans ATCC 10231 and C. tropicalis between the hyphal and yeast growth forms at sub-lethal concentrations (Figure 1). […] However, not only the morphology changed, but the cell number also declined, particularly in the latter case.
(§2) To induce morphological change of C. albicans and C. tropicalis YNB medium was changed for eight-fold diluted AIM-V+AlbuMAX (BSA) medium (Gibco, Thermo Fisher Scientific, Dublin, Ireland) referred to as 1/8AIM in the text.
(§3) Bright-field microscopy. The morphology of C. albicans ATCC 10231 and C. tropicalis cells was examined after 48 h incubation with the selected peptides (NCR335C17–33 and NCR169C17–38) by Zeiss Axio Observer inverted microscope (Carl Zeiss AG, Jena, Germany). The concentration of the NCR335C17–33 was 1.56 and 3.12 µM, NCR169C17–38 1.56 or 3.12 µM while NCR169C17–38ox 0.78 or 3.12 µM, the initial cell concentration was set to 4 × 10^4 cell/mL. Cells cultivated without peptides were used as control.

C. tropicalis CBS 94 = assay: Yeast-hypha morphology, bright-field microscopy; assay type: cell-based, Candida tropicalis; details: 48 h, 1/8AIM medium
Description: as §1, §2, §3

[5] = system: C. albicans SZMC 1458 biofilm; assay: Biofilm formation assay, XTT; assay type: cell-based, Candida albicans; details: 72 h, 37 °C, 5 % CO2, 1/8AIM medium, p ≤ 0.0001
[6] = system: C. albicans ATCC 10231 biofilm; assay: Morphology of biofilm-located cells, scanning electron microscopy; assay type: cell-based, Candida albicans; details: SEM, 72 h, 37 °C, sub-lethal concentrations
Candida auris 0381 = assay: microbe, parasite or virus in culture; assay type: cell-based; details: micro-dilution, YNB medium, 4 × 10^4 cell/mL, 48 h, 30 °C, OD 620 nm; MIC = growth inhibition ≥90%; peptides 25 to 1.56 µM, fluconazole 200 to 0.78 µM; three biological repeats in triplicates; further: key: -: no growth inhibition was observed
Description: (§4) The antifungal activity of all the 14 peptides was tested against the following opportunistic human pathogen Candida species and strains: C. albicans strains ATCC 10231, SC 5314 and SZMC 1458, C. auris 0381, C. glabrata CBS 138, C. parapsilosis CBS 604 and C. tropicalis CBS 94.
(§5) All the Candida strains (Table 4) were grown overnight in YPD medium (1% pepton, 1% dextrose, 0.5% yeast extract) at 30 °C in water bath shaker prior to each experiments. The cells were harvested by centrifugation (5 min, 3000× g) washed twice with sterile distilled water and suspended in 5-fold diluted Difco Yeast Nitrogen Base w/o Amino Acids medium (Becton, Dickinson and Company, Sparks, MD, USA) supplemented with 1% dextrose, referred to as YNB medium in the text. Cells were counted in Bürker chamber and diluted to the proper concentration.
(§6) The growth inhibition of the peptides listed in Table 1 was tested in 96-well microtiter plates on Candida strains. The minimal inhibitory concentration (MIC) was determined with the micro-dilution method by adding 5 µL serially two-fold-diluted peptide solution to 95 µL of cell suspension (4 × 10^4 cell/mL) in YNB medium. After 48 h of incubation at 30 °C the optical density of the cultures was measured at 620 nm in SPECTROstar Nano plate reader (BMG LabTech, Offenburg, Germany). Minimal inhibitory concentration was defined as growth inhibition ≥90% compared to 100% growth of the untreated control. The experiments were carried out in three biological repeats always in triplicates.

Candida cells = assay: Fungicide effect, spotting of treated cells on solid YPD medium; assay type: cell-based, Candida species; details: 1.56–25 µM, 24 h treatment, dilutions spotted on solid YPD medium, 48 h, 30 °C
Description: To determine whether the inhibitory effect of the peptides is generated by fungistatic or fungicide action, the Candida cells were treated with the peptides in the same concentration range (1.56–25 µM) as in the growth inhibition assay. After 24 h 5 µL sample from the untreated control cells and from the peptide treated cells was added to 95 µL water and diluted further 10- and 100-fold. From each dilution, 5 µL was placed on solid medium and the growth of the control and peptide treated cells was compared after 48 h incubation at 30 °C. This assay confirmed that all the effective peptides, NCR335N1–19, NCR335N7–21, NCR335C1–33, NCR335C13–33, NCR335C17–33, NCR169C17–38, NCR169C17–38ox, NCR169C17–38W10,20/A provoked growth inhibition through fungicidal actions (Figure A2). The fungicide concentrations, required for the complete elimination of the Candida cells, were either equal to or twice higher than the minimum inhibitory concentrations presented in Table 2.
The same initial experimental setting was used to determine the fungicide effect of the peptides. Five µL samples were taken from the cultures after 24 h and were added to 95 µL sterile distilled water, and diluted to 10- and 100-fold (indicated as 10^4, 10^3 and 10^2 based on the cell number of the control culture in Figure A2). Five µL from each dilution were placed on solid YPD medium and the growth of the strains was detected after 48 h incubation at 30 °C.

[7] = system: Candida parapsilosis CBS 604; assay: microbe, parasite or virus in culture; assay type: cell-based; details: micro-dilution, YNB medium, 4 × 10^4 cell/mL, 48 h, 30 °C, OD 620 nm; MIC = growth inhibition ≥90%; peptides 25 to 1.56 µM, fluconazole 200 to 0.78 µM; three biological repeats in triplicates; further: key: -: no growth inhibition was observed
Description: as §4, §5, §6

[8] = NCR169C17–38 + NCR169C17–38ox, C. auris
[9] = fluconazole + NCR169C17–38ox, C. auris

Compound: RLNTTFRPLNFKMLRFWGQNRNIMKHRGQKVHFSLILSDCKTNKDCPKLRRANVRCRKSYCVPI [NCR335, 64 amino acid long cationic nodule specific cysteine-rich peptide of Medicago truncatula]
- MIC (Candida albicans; C. albicans): 1.4 to 2.5 µM
- minimal inhibitory concentrations (MIC), range over the listed cationic NCR peptides (Candida albicans; C. albicans): 1.4 to 10 µM

Compound: EDIGHIKYCGIVDDCYKSKKPLFKIWKCVENVCVLWYK [NCR169]
- activity against C. albicans (Candida albicans; in the studied concentration range): inactive

Compound: CC[C@H](C)[C@H](NC(=O)[C@@H]1CCCN1C(=O)[C@@H](NC(=O)[C@H](CS)NC(=O)[C@H](Cc1ccc(O)cc1)NC(=O)[C@H](CO)NC(=O)[C@H](CCCCN)NC(=O)[C@H](CCCNC(=N)N)NC(=O)[C@H](CS)NC(=O)[C@H](CCCNC(=N)N)NC(=O)[C@@H](NC(=O)[C@H](CC(N)=O)NC(=O)[C@H](C)NC(=O)[C@H](CCCNC(=N)N)NC(=O)[C@H](CCCNC(=N)N)NC(=O)[C@H](CC(C)C)NC(=O)[C@@H](N)CCCCN)C(C)C)C(C)C)C(N)=O [NCR335C17–33] (H-KLRRANVRCRKSYCVPI-NH2; N-terminus assumed)
- morphology of cells in the biofilm [1]: practically only the yeast form was present
- concentration significantly inhibiting biofilm formation, relative to MIC [2]: half MIC
- concentration significantly inhibiting biofilm formation, relative to MIC [3]: half MIC
- Action (C. auris; NCR169C17–38 + NCR335C17–33, C. auris): Synergism
- concentration of drug B for the indicated action (C. auris; checkerboard, C. auris, 72 h, 30 °C, drug A NCR169C17–38 + drug B NCR335C17–33): 3.12 µM
- FICB (C. auris; checkerboard, C. auris, 72 h, 30 °C, drug A NCR169C17–38 + drug B NCR335C17–33, * fictitious value, 25 µM used as MIC of NCR335C17–33): ≤ 0.25
- Action (C. auris; fluconazole + NCR335C17–33, C. auris): Indifferent
- concentration significantly inhibiting biofilm formation, relative to MIC [4]: MIC
- effect on hyphal growth (C. albicans ATCC 10231): completely inhibited the hyphal growth
- effect on hyphal/yeast growth form (C. tropicalis CBS 94; 1.56 µM peptide): shifted to the yeast form
- concentration significantly inhibiting biofilm formation, relative to MIC [5]: half MIC
- morphology of cells in the biofilm [6]: reduced the abundance of the hyphal form
- Minimal inhibitory concentration, Cau 0381 (Candida auris 0381): -
- growth inhibition by fungistatic or fungicide action (Candida cells): fungicidal

Compound: CC[C@H](C)[C@H](NC(=O)[C@H](CCCCN)NC(=O)[C@H](Cc1ccccc1)NC(=O)[C@H](CC(C)C)NC(=O)[C@@H]1CCCN1C(=O)[C@H](CCCCN)NC(=O)[C@H](CCCCN)NC(=O)[C@H](CO)NC(=O)[C@@H](N)CCCCN)C(=O)N[C@@H](Cc1c[nH]c2ccccc12)C(=O)N[C@@H](CCCCN)C(=O)N[C@H]1CSSC[C@@H](C(=O)N[C@H](C(=O)N[C@@H](CC(C)C)C(=O)N[C@@H](Cc2c[nH]c3ccccc23)C(=O)N[C@@H](Cc2ccc(O)cc2)C(=O)N[C@@H](CCCCN)C(N)=O)C(C)C)NC(=O)[C@H](C(C)C)NC(=O)[C@H](CC(N)=O)NC(=O)[C@H](CCC(=O)O)NC(=O)[C@H](C(C)C)NC1=O [NCR169C17–38ox] (H-KSKKPLFKIWKCVENVCVLWYK-NH2; disulfide 12-17; N-terminus assumed)
- concentration significantly inhibiting biofilm formation, relative to MIC [2]: one-fourth of the MIC
- concentration significantly inhibiting biofilm formation, relative to MIC [3]: MIC
- Action (C. auris; [8]): Synergism
- reduction of MIC in the synergistic combination (C. auris; [8]): 8 ×
- Action (C. auris; [9]): Synergism
- reduction of MIC in the synergistic combination (C. auris; [9]): 8 ×
- concentration significantly inhibiting biofilm formation, relative to MIC [4]: half MIC
- effect on hyphal growth (C. albicans ATCC 10231): completely inhibited the hyphal growth
- effect on hyphal/yeast growth form (C. tropicalis CBS 94; 0.78 µM peptide): the only form of the culture
- concentration significantly inhibiting biofilm formation, relative to MIC [5]: half MIC
- Minimal inhibitory concentration, Cp CBS 604 [7]: -
- growth inhibition by fungistatic or fungicide action (Candida cells): fungicidal
